Structures can show the parent of a compound that is named as a salt.

For the compound `Cc1nc2cc(-c3ccc4nc(CCN5CCC[C@H]5C)ccc4c3)ccc2s1` (as salt: hydrochloride) [Example 14, 6-(2-Methyl-benzothiazol-5-yl)-2-[2-(2R-methyl-pyrrolidin-1-yl)-ethyl]-quinoline], the melting point – broadly, the temperature of the solid-liquid transition – fell in the range of 182 to 183 °C.

The record behind these values is patent publication US20050256309A1, “Tri-and bi-cyclic heteroaryl histamine-3 receptor ligands” (priority 2004, published 2005).
